Test results taken from patent US11796610B2, “Compositions as molecular tags for hyperpolarization NMR and magnetic resonance and methods of making and using same” (Duke University, priority 2018, dated 2023).
Values belong to the compound of their own block, whether it stands above or below them.

Experiments:
Format in all cases: physicochemical
[1] = Hyperpolarization then cycloaddition with cyclooctyne 2: enhancement and lifetime of products; settings: methanol-d4; for signal enhancement over thermal spectra, product anti-phase (singlet) signal: tetrazine scalar order hyperpolarized at 0.3 mT, then 2 injected
Excerpt: For the hyperpolarization of the cycloaddition products 3a and 3b, a solution of tetrazine (1a or 1b, respectively), pyridine, and Ir catalyst in methanol-d4 was first hyperpolarized at 0.4 μT or 0.3 mT, depending on which spin order was studied (solution preparation and hyperpolarization procedure described above in Example 4). After hyperpolarization, the para-H2 gas flow was stopped and the pressure was released through the exhaust outlet, after which the injection valve (shown in FIG. 5) was quickly opened to inject a solution of cyclooctyne 2 (4.5 mM) in methanol-d4 (200 μL) (equiv of tetrazine:2=1.0:1.5). Injection was completed in less than 1 second, and the sample was shaken for 3 seconds to reach complete reaction, visually evidenced by the color change from pink (i.e., the color of the tetrazine) to transparent. The sample was then manually transferred to an 8.5 T spectrometer for product signal read out.
Upon the cycloaddition reaction, a noticeable difference in chemical shift is observed on both nitrogen atoms (i.e., N1 and N2 in 1a vs. N1′ and N2′ in 3a). […] Hyperpolarized 3a and ^15N2 are observed. FIG. 3, panels c, e, and g show representative T1 or Ts decay measurements for product 3a magnetization, 3a singlet order, and 3b singlet order, respectively. […] FIG. 3, panels d, f, and h show lifetime measurement data, exponential fit of the data, and calculated T1 or Ts values for product 3a magnetization, 3a singlet order, and 3b singlet order, respectively. In the hyperpolarization-cycloaddition experiments, para-hydrogen was bubbled into a solution of ^15N4-1,2,4,5-tetrazine 1a or 1b (1.5 mM), pyridine (1.0 mM), and Ir(COD)(IMes)Cl (0.15 mM) in methanol-d4 (400 uL), then a solution of 2 (1.5 equivalents) in methanol-d4 (200 μL) was added. The sample was held at 0.3 mT for a variable amount of time before transport to the magnet for detection.

[2] = Injection and detection with small tip angle (product relaxation lifetime); settings: 15° tip angle, 6 consecutive spectra in the magnet, 1.6 s delay
Protocol: In addition to using a 90° pulse-acquire sequence for detection after injection, experiments using small tip angles (15° or 11.25°) were conducted to acquire a series of detection within a short time window (˜10 s), and to use that information to determine the relaxation lifetime of different spin orders of the hyperpolarized product.
FIG. 9, panel a: magnetization of ^15N-enriched tetrazine 1a is first hyperpolarized at 0.4 μT, then a solution of 2 in methanol-d4 is injected (as described in Example 4). Then, the sample is manually transferred as quickly as possible into the magnet, using 15° tip angle to acquire 6 spectra consecutively, with a 1.6 s delay between each acquisition. […] Panel b: singlet spin order of ^15N-enriched tetrazine 1a is first hyperpolarized at 0.3 mT, then a solution of 2 in methanol-d4 is injected (as described in Example 4). Then, the sample is manually transferred as quickly as possible into the magnet, using 11.25° tip angle to acquire 6 spectra consecutively, with a 1.6 s delay between each acquisition. […] Panels c-e: relaxation constant measurements of the hyperpolarized product magnetization, hyperpolarized ^15N2 gas, and hyperpolarized product singlet. The product magnetization has T1 lifetime of ˜6.9 s.

[3] = Hyperpolarization in aqueous media (3:1 methanol-d4:D2O, about 50° C.)
Protocol: One important aspect of our bioorthogonal reaction-promoted hyperpolarization approach is the ability to exploit this scheme using an aqueous solvent, which is critical for many biological reactions and would widely broaden the applicability of this strategy. […] The best results were achieved using a 3:1 methanol-d4:D2O mixture and by elevating the temperature to about 50° C. using a water bath while bubbling para-H2 through the solution.
A solution of 2 was prepared in the same 3:1 methanol-d4:D2O mixed solvent and was injected after the hyperpolarization was established for the precursor tetrazine.

[4] = SABRE-SHEATH hyperpolarization of 15N4-1,2,4,5-tetrazines in methanol-d4
Protocol: Unless otherwise described, a solution of ^15N-enriched tetrazine (1a or 1b, 1.5 mM), pyridine (1.0 mM), and Ir(IMes)(COD) Cl (0.15 mM) in methanol-d4 (400 μL) was prepared. Note: IMes=1,3-bis(2,4,6-trimethylphenyl) imidazol-2-ylidene; COD=1,5-cyclooctadiene.
The Ir catalyst was pre-activated by bubbling para-H2 through a solution of tetrazine, pyridine, and Ir catalyst (sample preparation described above) for 30 minutes. Following pre-activation, the tetrazine was hyperpolarized, either magnetization or singlet order.
To hyperpolarize magnetization, the solution was placed inside the magnetic shield, with the magnetic field adjusted to 0.4 μT (using a solenoid of 430 mm with 205 turns and a voltage of 7.5 V across 11.4 kOhms). After 3 minutes' bubbling of para-H2, the gas flow was stopped and the sample was manually transferred from the low field to an 8.5 T spectrometer for signal read out as quickly as possible. This manual transfer takes ˜8 seconds, and a 90° pulse-acquire sequence was used for read out.
To hyperpolarize singlet, the sample was placed at a magnetic field of 0.3 mT and para-H2 was bubbled through the solution for 3 minutes. As described in the above procedure, the sample was then manually transferred to an 8.5 T spectrometer as quickly as possible and detected using a 90° pulse-acquire sequence.
Depending on the magnetic field at which hyperpolarization was induced, in-phase signal (magnetization) or anti-phase signal (singlet) was observed. Enhancement values (ε) and polarization levels (p) were obtained by comparison of the hyperpolarized spectrum to a thermal reference spectrum of the respective ^15N4-1,2,4,5-tetrazine. […] Measurement at 0.3 mT. Sample as a solution of ^15N4-1,2,4,5-tetrazine (1.5 mM), pyridine (1.0 mM), and Ir(COD)(IMes)Cl (0.15 mM) in methanol-d4 (400 uL).
Hyperpolarization of 1a and 1b was examined by standard SABRE-SHEATH procedure, as reported by Theis et al. (“Direct and cost-efficient hyperpolarization of long-lived nuclear spin states on universal ^15N2-diazirine molecular tags,” Sci. Adv. 2, e1501438 (2016)). Two different hyperpolarized states for ^15N4-1,2,4,5-tetrazine 1a were observed, depending upon the chosen magnetic field at which the para-hydrogen gas is applied to the sample (FIG. 2b). At very low magnetic fields (˜0.4 μT), the ^15N spin pairs of the tetrazine are hyperpolarized in the triplet states and display in-phase signal upon detection at 8.45 T (i.e., magnetization is hyperpolarized). Conversely, at a relatively broad range of slightly elevated magnetic fields (˜0.2 mT<B<˜50 mT), anti-phase signals are observed after a 90° pulse. In this case, scalar order is hyperpolarized in the tetrazine spin pairs, associated with singlet states on ^15N-spin pairs; upon transfer to high magnetic field for detection, this scalar order is transformed into anti-aligned magnetization (I⋅S is adiabatically converted to Iz-Sz).

[5] = Concentration dependence of tetrazine hyperpolarization (enhancement and lifetime); settings: for T1 / Ts: decay at 0.3 mT
Protocol: Using serial dilution, solutions of tetrazine 1a, pyridine, and Ir catalyst in methanol-d4 (400 μL) were prepared at different concentrations, but in the same ratio of each component: • (i) 1a (7.5 mM), pyridine (5.0 mM), and Ir(IMES)(COD)Cl (0.75 mM) • (ii) 1a (3.8 mM), pyridine (2.5 mM), and Ir(IMES)(COD)Cl (0.38 mM) • (iii) 1a (1.5 mM), pyridine (1.0 mM), and Ir(IMES)(COD)Cl (0.15 mM) (i.e., default concentrations of solution used in all other experiments) • (iv) 1a (0.60 mM), pyridine (0.40 mM), and Ir(IMES)(COD)Cl (0.060 mM)
For the rest of this section, samples are referred to by the concentration of tetrazine 1a comprising the solution. As described above, either magnetization or singlet tetrazine hyperpolarization was developed following pre-activation of the catalyst. After bubbling para-H^2 through the sample, the sample was transferred to 0.3 mT for a variable period of time. Following this delay, the sample was transported to the magnet and the spectrum was immediately recorded with a 90° pulse-acquire sequence. Triplet magnetization signal was deconvoluted from singlet signal, and fitted to a single exponential decay. Results are shown below in Table 1 and graphically in FIGS. 6a and 6b.

[6] = Dilution effect on hyperpolarization (injection of pure methanol-d4); settings: 200 μL methanol-d4 injected; singlet order at 0.3 mT
Protocol: To observe the effect of simple dilution on hyperpolarization, pure methanol-d4 was injected into a solution of hyperpolarized tetrazine to obtain a diluted hyperpolarized signal as follows: tetrazine 1a was hyperpolarized singlet order at 0.3 mT and the spectra were acquired (as described in Example 4). The sample was again bubbled with para-H2 for 3 minutes at 0.3 mT, then the pressure was released and the injection valve was opened, after which 200 μL of methanol-d4 was quickly injected and the sample was manually transferred into the magnet to read out the signal (detailed in Example 4, but with the key difference: pure methanol-d4 used instead of a solution of 2 in methanol-d4). […] The signal observed was about half of the signal before addition.

[7] = Kinetic characterization of tetrazine/cyclooctyne reaction; settings: 1.5 mM tetrazine, 1.5 equivalent of 2, CD3OD
Protocol: Emulating hyperpolarization conditions (below), a 1.5 mM solution of 1c (1 equivalent) in CD3OD (400 μL) was added to an NMR tube. To this solution, a 4.5 mM solution of 2 (1.5 equivalent) in CD3OD (200 μL) was added and the NMR tube was shaken vigorously. Immediately upon addition, the color of the solution changed from pink (due to the pink color of the tetrazine 1c) to colorless. As soon as the pink color completely dissipated (<2 seconds), the sample was placed into the NMR and a spectrum was acquired. The upper trace represents 1c and the lower trace represents 3c, i.e., the product of the cycloaddition reaction.

[8] = at 0.3 mT, 1.5 mM in methanol-d4
[9] = tetrazine concentration 0.60 mM
[10] = tetrazine concentration 3.75 mM
[11] = 3:1 methanol-d4:D2O, about 50° C.

Structure (SMILES): c1ccc(-c2[15n][15n]c[15n][15n]2)cc1 [1a, 3-Phenyl-1,2,4,5-tetrazine-1,2,4,5-^15N4]
lifetime of scalar order relative to magnetization ([4]; at 0.3 mT): about 2 times
magnetization relaxation constant T1 [4, 8]: 1.4 ± 0.1 min
relaxation constant of the scalar order of the 15N spin pairs, Ts [4, 8]: 2.7 ± 0.3 min
signal enhancement over 8.45 T thermal measurements ([4]; tetrazine 1.5 mM, pyridine 1.0 mM, Ir(COD)(IMes)Cl 0.15 mM in methanol-d4): up to 3,000 fold
Singlet enhancement at 0 s delay (normalized to 1.5 mM singlet, %) [5, 9]: 96%
Z-Magnetization enhancement at 0 s delay (normalized to 1.5 mM Z-magnetization, %) [5, 9]: 130%
T1 [5, 9]: 74 s
Ts [5, 9]: 357 s
Singlet enhancement at 0 s delay (normalized to 1.5 mM singlet, %) ([5]; tetrazine concentration 1.5 mM): 100%
Z-Magnetization enhancement at 0 s delay (normalized to 1.5 mM Z-magnetization, %) ([5]; tetrazine concentration 1.5 mM): 100%
T1 ([5]; tetrazine concentration 1.5 mM): 91 s
Ts ([5]; tetrazine concentration 1.5 mM): 137 s
Singlet enhancement at 0 s delay (normalized to 1.5 mM singlet, %) [5, 10]: 77%
Z-Magnetization enhancement at 0 s delay (normalized to 1.5 mM Z-magnetization, %) [5, 10]: 86%
T1 [5, 10]: 72 s
Ts [5, 10]: 58 s
Singlet enhancement at 0 s delay (normalized to 1.5 mM singlet, %) ([5]; tetrazine concentration 7.5 mM): 56%
Z-Magnetization enhancement at 0 s delay (normalized to 1.5 mM Z-magnetization, %) ([5]; tetrazine concentration 7.5 mM): 66%
T1 ([5]; tetrazine concentration 7.5 mM): 47 s
Ts ([5]; tetrazine concentration 7.5 mM): 48 s
enhancement compared to that in neat methanol-d4 [3, 11]: about 30%
signal enhancement [3, 11]: ~900 fold
hyperpolarized singlet signal after dilution relative to signal before addition [6]: about half

Structure (SMILES): [2H]c1[15n][15n]c(-c2ccccc2)[15n][15n]1 [1b, 3-Phenyl-1,2,4,5-tetrazine-6-d-1,2,4,5-^15N4]
relaxation constant of the scalar order of the 15N spin pairs, Ts [4, 8]: 2.1 ± 0.7 min
enhancement of hyperpolarized scalar order ([4]; singlet mode, 1.5 mM in methanol-d4): 2900 fold
hyperpolarized magnetization (T1) obtainable ([4]; μT fields): not possible to create the hyperpolarized magnetization

Structure (SMILES): c1ccc(-c2nncnn2)cc1 [1c, 3-Phenyl-1,2,4,5-tetrazine]
time until pink color completely dissipated on reaction with 2 [7]: < 2 s

Second part, the compound after the results:

lifetime Ts of product ([1]; held at 0.3 mT): 13 ± 2 s
magnetization lifetime T1 of product ([1]; held at 0.3 mT): 13 ± 4 s
enhancement over thermal spectra, hyperpolarized product magnetization ([1]; tetrazine magnetization hyperpolarized at 0.4 μT, then 2 added at 0.3 mT): 540 fold
signal enhancement over thermal spectra, product anti-phase (singlet) signal [1]: 140 fold
product magnetization T1 lifetime [2]: ~6.9 s
hyperpolarized signal from cycloaddition product ([3]; 3:1 CD3OD:D2O, 50° C.): detected the hyperpolarized signal
Structure (SMILES): OC[C@H]1[C@H]2CCc3c(c[15n][15n]c3-c3ccccc3)CC[C@@H]12 (racemic) [3a, (1-Phenyl-6,6a,7,7a,8,9-hexahydro-5H-cyclopropa[5,6]cycloocta[1,2-d]pyridazin-7-yl-2,3-15N2)methanol]

lifetime Ts of product ([1]; held at 0.3 mT): 24 ± 6 s
signal enhancement over thermal spectra, product anti-phase (singlet) signal [1]: 180 fold
Structure (SMILES): [2H]c1[15n][15n]c(-c2ccccc2)c2c1CC[C@H]1[C@@H](CO)[C@H]1CC2 [3b, (1-Phenyl-6,6a,7,7a,8,9-hexahydro-5H-cyclopropa[5,6]cycloocta[1,2-d]pyridazin-7-yl-4-d-2,3-^15N2)methanol]
